Data: ChEMBL document CHEMBL1155125 (Bioorg Med Chem Lett, 2008)

Assays:
[1] = tested on: Cystic fibrosis transmembrane conductance regulator (Homo sapiens), P13569 [F508del]; assay: Agonist activity at CFTR-deltaF508 mutant expressed in NIH3T3 cells assessed as increase in forskolin-stimulated current at 20 uM by whole cell assay relative to control; format: functional, cell-based
[2] = tested on: Cystic fibrosis transmembrane conductance regulator (Homo sapiens), P13569 [F508del]; assay: Agonist activity at CFTR-deltaF508 mutant expressed in NIH3T3 cells assessed as increase in forskolin-stimulated current at 30 uM by whole cell assay relative to genistein; format: functional, cell-based
[3] = tested on: Cystic fibrosis transmembrane conductance regulator (Homo sapiens), P13569 [F508del]; assay: Agonist activity at CFTR-deltaF508 mutant expressed in NIH3T3 cells assessed as increase in forskolin-stimulated current at 30 uM by whole cell assay relative to control; format: functional, cell-based
[4] = tested on: Cystic fibrosis transmembrane conductance regulator (Homo sapiens), P13569 [K1250A]; assay: Agonist activity at CFTR-K1250A mutant assessed as increase in forskolin-stimulated current at 5 uM; format: functional
Cystic fibrosis transmembrane conductance regulator (Homo sapiens), P13569 [K1250A], sequence (P13569 whole entry K1250A): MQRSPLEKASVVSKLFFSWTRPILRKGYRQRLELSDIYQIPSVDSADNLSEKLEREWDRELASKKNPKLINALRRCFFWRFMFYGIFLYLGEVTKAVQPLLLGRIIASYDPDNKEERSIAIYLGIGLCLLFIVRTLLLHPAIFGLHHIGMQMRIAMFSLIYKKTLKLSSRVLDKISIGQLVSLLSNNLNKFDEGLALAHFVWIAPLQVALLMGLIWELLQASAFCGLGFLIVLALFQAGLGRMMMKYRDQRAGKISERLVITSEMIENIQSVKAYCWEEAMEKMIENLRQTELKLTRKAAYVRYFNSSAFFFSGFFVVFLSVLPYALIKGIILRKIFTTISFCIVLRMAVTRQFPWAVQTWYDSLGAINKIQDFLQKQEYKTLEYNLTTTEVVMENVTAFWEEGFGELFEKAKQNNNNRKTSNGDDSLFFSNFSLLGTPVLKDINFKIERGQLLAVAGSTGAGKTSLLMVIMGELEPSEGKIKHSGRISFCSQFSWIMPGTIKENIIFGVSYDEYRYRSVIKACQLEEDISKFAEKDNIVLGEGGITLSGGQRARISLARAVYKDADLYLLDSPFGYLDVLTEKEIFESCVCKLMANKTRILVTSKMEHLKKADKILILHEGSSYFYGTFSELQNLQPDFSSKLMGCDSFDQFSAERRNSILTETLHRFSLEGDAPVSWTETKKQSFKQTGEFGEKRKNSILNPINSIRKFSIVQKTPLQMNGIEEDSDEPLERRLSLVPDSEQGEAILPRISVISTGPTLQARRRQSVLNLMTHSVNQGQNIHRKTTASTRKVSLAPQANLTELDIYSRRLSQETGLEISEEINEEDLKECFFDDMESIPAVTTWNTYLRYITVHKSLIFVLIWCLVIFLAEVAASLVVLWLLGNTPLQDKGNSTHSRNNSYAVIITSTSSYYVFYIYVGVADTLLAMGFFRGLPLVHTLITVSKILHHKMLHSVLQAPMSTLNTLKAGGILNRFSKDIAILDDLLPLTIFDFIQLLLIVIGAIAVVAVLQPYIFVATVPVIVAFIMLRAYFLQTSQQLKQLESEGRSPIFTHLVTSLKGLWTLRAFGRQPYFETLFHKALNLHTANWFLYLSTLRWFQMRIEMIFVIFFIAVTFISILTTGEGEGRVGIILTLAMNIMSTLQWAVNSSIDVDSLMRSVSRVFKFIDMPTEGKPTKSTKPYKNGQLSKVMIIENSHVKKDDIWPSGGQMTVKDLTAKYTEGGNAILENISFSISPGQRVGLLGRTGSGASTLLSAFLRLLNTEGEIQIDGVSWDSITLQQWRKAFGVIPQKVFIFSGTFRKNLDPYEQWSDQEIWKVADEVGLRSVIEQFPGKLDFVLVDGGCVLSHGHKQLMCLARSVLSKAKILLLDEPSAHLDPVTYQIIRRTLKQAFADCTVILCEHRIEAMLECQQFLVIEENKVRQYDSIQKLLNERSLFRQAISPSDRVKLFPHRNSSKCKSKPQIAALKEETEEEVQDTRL

[5] = target: Cystic fibrosis transmembrane conductance regulator (Homo sapiens, UniProt P13569, F508DEL); assay: Agonist activity at CFTR-deltaF508 mutant expressed in NIH3T3 cells assessed as increase in forskolin-stimulated current; format: functional, cell-based
Cystic fibrosis transmembrane conductance regulator, sequence (P13569 as listed by the source): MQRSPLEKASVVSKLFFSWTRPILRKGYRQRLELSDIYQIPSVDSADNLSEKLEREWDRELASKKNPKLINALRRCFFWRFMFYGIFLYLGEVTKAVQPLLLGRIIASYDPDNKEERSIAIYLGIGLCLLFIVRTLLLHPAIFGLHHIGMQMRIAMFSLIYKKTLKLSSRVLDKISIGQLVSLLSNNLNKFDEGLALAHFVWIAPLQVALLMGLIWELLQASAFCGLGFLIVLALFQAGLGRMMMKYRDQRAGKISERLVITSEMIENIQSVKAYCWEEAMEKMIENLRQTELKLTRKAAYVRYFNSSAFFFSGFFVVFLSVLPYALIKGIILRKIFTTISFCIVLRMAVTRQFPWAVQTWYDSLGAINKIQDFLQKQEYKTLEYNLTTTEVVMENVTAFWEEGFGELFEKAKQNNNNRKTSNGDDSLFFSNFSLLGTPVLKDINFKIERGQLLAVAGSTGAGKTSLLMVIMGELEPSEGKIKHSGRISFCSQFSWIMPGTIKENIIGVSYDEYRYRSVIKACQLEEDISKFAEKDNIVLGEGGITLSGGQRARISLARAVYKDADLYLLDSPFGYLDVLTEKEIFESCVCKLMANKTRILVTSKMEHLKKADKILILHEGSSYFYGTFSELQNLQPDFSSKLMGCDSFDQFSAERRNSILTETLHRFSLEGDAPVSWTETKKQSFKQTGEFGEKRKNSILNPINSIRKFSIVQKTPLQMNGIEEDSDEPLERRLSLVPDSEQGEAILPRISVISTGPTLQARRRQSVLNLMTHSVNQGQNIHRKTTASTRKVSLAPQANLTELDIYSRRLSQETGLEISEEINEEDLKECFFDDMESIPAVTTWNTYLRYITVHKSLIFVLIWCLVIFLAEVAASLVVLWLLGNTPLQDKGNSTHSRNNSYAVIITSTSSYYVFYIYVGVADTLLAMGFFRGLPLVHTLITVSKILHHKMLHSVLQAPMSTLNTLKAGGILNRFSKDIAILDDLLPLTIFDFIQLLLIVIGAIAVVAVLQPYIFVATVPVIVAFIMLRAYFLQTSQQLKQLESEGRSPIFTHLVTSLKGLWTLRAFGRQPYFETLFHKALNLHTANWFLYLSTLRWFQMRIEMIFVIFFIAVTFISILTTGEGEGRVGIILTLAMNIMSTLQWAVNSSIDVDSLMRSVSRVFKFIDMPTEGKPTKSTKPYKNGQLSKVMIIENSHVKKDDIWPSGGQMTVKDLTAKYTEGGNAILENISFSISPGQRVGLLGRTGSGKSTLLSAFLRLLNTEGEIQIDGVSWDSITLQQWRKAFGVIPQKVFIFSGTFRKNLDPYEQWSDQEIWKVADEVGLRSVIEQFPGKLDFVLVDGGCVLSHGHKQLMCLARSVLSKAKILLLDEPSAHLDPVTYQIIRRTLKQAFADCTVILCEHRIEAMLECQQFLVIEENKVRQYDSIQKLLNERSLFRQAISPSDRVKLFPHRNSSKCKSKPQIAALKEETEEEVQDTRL

Cystic fibrosis transmembrane conductance regulator (Homo sapiens), P13569 [F508del], sequence (P13569 as listed by the source): as above

O=c1c(-c2ccc(O)cc2)coc2cc(O)cc(O)c12
fold change (FC) [1]: 8.29

O=c1cc(-c2ccncc2)oc2c1ccc1ccccc12
Activity [2]: 31%
fold change (FC) [3]: 3.76
fold change (FC) [1]: 3.69
fold change (FC) [4]: 1.11
EC50 [5]: 3.5 µM
